According to PubChem BioAssay AID206 (DTP/NCI, 2004):
Records with an inconclusive call do not appear.

Test system: nude mice, HT29 intrarenal xenograft, tumor weight T/C
Experiment: NCI In Vivo Anticancer Drug Screen. Data for tumor model HT29;CX-1 Human Adenocarcinoma (MER+) (intrarenal inoculation) in NU/NU Swiss (nude) mice
Settings: endpoint: mean tumor weight change, higher = larger tumour
Procedure: The antitumor activity of compounds was measured in mice bearing transplantable tumors. Survival or tumor size were measured and the results are expressed as the measurement made in the treated group (T) divided by the measurement made in the vehicle treated control group (C). The tumor model used in this assay is HT29;CX-1 Human Adenocarcinoma (MER+) (intrarenal inoculation) in NU/NU Swiss (nude) mice

[1] = dose: 300.0 mg/kg/injection, schedule: Q04DX004 (sc), vehicle: Klucel (hydroxypropylcellulose) (HPC)
[2] = dose: 600.0 mg/kg/injection, schedule: Q04DX004 (sc), vehicle: Klucel (hydroxypropylcellulose) (HPC)
[3] = dose: 150.0 mg/kg/injection, schedule: Q04DX004 (sc), vehicle: Klucel (hydroxypropylcellulose) (HPC)
[4] = dose: 1200.0 mg/kg/injection, schedule: Q04DX004 (sc), vehicle: Klucel (hydroxypropylcellulose) (HPC)

COC1=C(OC)C(=O)C(C/C=C(\C)CC/C=C(\C)CC/C=C(\C)CC/C=C(\C)CC/C=C(\C)CC/C=C(\C)CC/C=C(\C)CC/C=C(\C)CC/C=C(\C)CCC=C(C)C)=C(C)C1=O
T/C (dose: 100.0 mg/kg/injection, schedule: Q01DX010 (sc), vehicle: saline with Tween-80): 113 % of control
T/C (dose: 200.0 mg/kg/injection, schedule: Q01DX010 (sc), vehicle: saline with Tween-80): 98 % of control
T/C (dose: 400.0 mg/kg/injection, schedule: Q01DX010 (sc), vehicle: saline with Tween-80): 105 % of control
T/C (dose: 800.0 mg/kg/injection, schedule: Q01DX010 (sc), vehicle: saline with Tween-80): 46 % of control

Cc1nc(N)nc(N)c1-c1ccc(Cl)c(Cl)c1
T/C (dose: 0.32 mg/kg/injection, schedule: Q01DX010 (sc), vehicle: saline): 46 % of control
T/C (dose: 0.63 mg/kg/injection, schedule: Q01DX010 (sc), vehicle: saline): 75 % of control
T/C (dose: 1.25 mg/kg/injection, schedule: Q01DX010 (sc), vehicle: saline): 100 % of control
T/C (dose: 2.5 mg/kg/injection, schedule: Q01DX010 (sc), vehicle: saline): 68 % of control

Ic1ncnc2c1ncn2C1CCCO1 (configuration not stated)
T/C [1]: 55 % of control
T/C [2]: 112 % of control
T/C (dose: 2400.0 mg/kg/injection, schedule: Q04DX004 (sc), vehicle: Klucel (hydroxypropylcellulose) (HPC)): 72 % of control

CC1=CC2C(O)(CC(CO)=CC3C4C(C)(C)C4(OC(=O)c4ccccc4)C(OC(=O)c4ccccc4)C(C)C32O)C1=O (configuration not stated)
T/C (dose: 5.0 mg/kg/injection, schedule: Q04DX004 (sc), vehicle: saline with Tween-80): 43 % of control

NC(N)=NOCC[C@@H](N)C(=O)O
T/C (dose: 150.0 mg/kg/injection, schedule: Q04DX004 (sc), vehicle: saline): 108 % of control
T/C (dose: 300.0 mg/kg/injection, schedule: Q04DX004 (sc), vehicle: saline): 75 % of control
T/C (dose: 600.0 mg/kg/injection, schedule: Q04DX004 (sc), vehicle: saline): 76 % of control
T/C (dose: 1200.0 mg/kg/injection, schedule: Q04DX004 (sc), vehicle: saline): 62 % of control

CC[C@@]1(O)C[C@H](OC2CC(N(C)C)C(OC3CC(O)C(OC4CCC(=O)C(C)O4)C(C)O3)C(C)O2)c2c(cc3c(c2O)C(=O)c2c(O)ccc(O)c2C3=O)[C@H]1C(=O)OC (some centres not stated)
T/C (dose: 3.0 mg/kg/injection, schedule: Q04DX004 (sc), vehicle: water): 12 % of control
T/C (dose: 6.0 mg/kg/injection, schedule: Q04DX004 (sc), vehicle: water): -24 % of control

O=[N+]([O-])c1ccc(-n2[nH]nnc2=S)cc1
T/C (dose: 100.0 mg/kg/injection, schedule: Q04DX004 (sc), vehicle: Klucel (hydroxypropylcellulose) (HPC)): 94 % of control
T/C (dose: 200.0 mg/kg/injection, schedule: Q04DX004 (sc), vehicle: Klucel (hydroxypropylcellulose) (HPC)): 92 % of control
T/C (dose: 400.0 mg/kg/injection, schedule: Q04DX004 (sc), vehicle: Klucel (hydroxypropylcellulose) (HPC)): 96 % of control
T/C (dose: 800.0 mg/kg/injection, schedule: Q04DX004 (sc), vehicle: Klucel (hydroxypropylcellulose) (HPC)): 80 % of control

CC12CC(C(=O)O)C3(O)CC(C)(C1)CC(C)(C2)C3 (configuration not stated) (tested in a mixture with another compound)
T/C [3]: 48 % of control
T/C [1]: 54 % of control
T/C [2]: 66 % of control
T/C [4]: 110 % of control

O=C1N=C(Oc2ccccc2)SC1=O
T/C (dose: 50.0 mg/kg/injection, schedule: Q04DX004 (sc), vehicle: saline with Tween-80): 40 % of control
T/C (dose: 100.0 mg/kg/injection, schedule: Q04DX004 (sc), vehicle: saline with Tween-80): 76 % of control
T/C (dose: 200.0 mg/kg/injection, schedule: Q04DX004 (sc), vehicle: saline with Tween-80): 59 % of control
T/C (dose: 400.0 mg/kg/injection, schedule: Q04DX004 (sc), vehicle: saline with Tween-80): 78 % of control

Cc1ccc(S(=O)(=O)N/N=C/C(Br)=C(/Br)C(=O)O)cc1
T/C [3]: 47 % of control
T/C [1]: 55 % of control
T/C [2]: 22 % of control

Cn1cnc([N+](=O)[O-])c1Sc1ncn[nH]1
T/C (dose: 200.0 mg/kg/injection, schedule: Q04DX004 (sc), vehicle: suspension in saline): 49 % of control

O=c1oc2c(O)c(O)cc3c(=O)oc4c(O)c(O)cc1c4c23
T/C [3]: 93 % of control
T/C [2]: 161 % of control
T/C [4]: 201 % of control

O=c1[nH]c(=O)n(C2CC(O)C(CO)O2)cc1F (configuration not stated)
T/C (dose: 25.0 mg/kg/injection, schedule: Q01DX010 (sc), vehicle: water): 65 % of control
T/C (dose: 50.0 mg/kg/injection, schedule: Q01DX010 (sc), vehicle: water): 75 % of control

C[CH2][Pb]([CH2]C)([CH2]C)[O]C(=O)COc1ccccc1
T/C (dose: 4.5 mg/kg/injection, schedule: Q04DX004 (sc), vehicle: saline with Tween-80): 100 % of control
T/C (dose: 9.0 mg/kg/injection, schedule: Q04DX004 (sc), vehicle: saline with Tween-80): 114 % of control
T/C (dose: 18.0 mg/kg/injection, schedule: Q04DX004 (sc), vehicle: saline with Tween-80): 65 % of control
